We go through 16 compounds from patent US5714516A, “Anti-viral agents” (priority 1992, dated 1998).

Data set [1] deals with Varicella zoster virus (VZV). The data set can be described thus: VZV plaque reduction assay in Mewo cells. Particulars: for Inhibition of VZV (in words): Example 1, 2 to 200 μM. The data set is classed as cell-based, varicella zoster virus (VZV) strain H-551. On the procedure: (§1) The assay system used was the Mewo cell plaque reduction assay of VZV, C. Grose and P. A. Brunell, Infection & Immunity, 19, 199-203 (1978). […] Compounds were tested at levels from 2 to 200 μM.
(§2) The VZV plaque assay of Example 1 was repeated using a variety of myristic acid analogues. Briefly, sub-confluent Mewo monolayers (Grose and Brunell, 1978, supra) in 24 well plates were infected with approximately 40 P.F.U. (Plaque Forming Units) of cell-free varicella zoster virus (VZV) strain H-551. After an adsorption period of 2 hours the cells were overlaid with 750 μl of MEM (Minimum Essential Medium (Eagle)) supplemented with 2% fetal calf serum and 1% non-essential amino acids. The anti-viral compounds to be tested were solubilized in ethanol, added to final concentrations of 0, 2, 20 or 200 μM and the wells then overlaid with a further 750 μl of MEM supplemented with 2% fetal calf serum, 1% non-essential amino acids and 0.3% agarose. Mock infected wells were also included as controls to test for cytotoxicity. All plates were incubated at 32° C. with 5% CO2. Eight days post infection the monolayers were fixed in 4% formaldehyde and stained with crystal violet.
(§3) The effect of 2-hydroxymyristic acid (2-HM) on VZV or HIV when solubilized in a variety of solvents was observed using the methods approved for the Medical Research Council AIDS Directed Programme as described in H. C. Holmes et al., Antiviral Chem. & Chemother. (1991), 2(5), 287-293, using concentrations of 2 HM from 0.08to 1000 μM. Additionally, back titration assays of HIV were carried out by adding supernatants from treated infected cells to uninfected C8166 cells at increasing dilutions. Assays were scored by recording the presence or absence of syncytium formation.
(§4) Preparation and assay of VZV was carried out as described previously in Examples 1 and 3.
Stocks of 2-HM were prepared from crystalline solid by dissolving in ethanol or in dimethyl sulphoxide (DMSO) to a concentration of 20 mM to 100 mM, and were stored at -20° C. prior to addition to culture media.

Data set [2] has as its system HIV. To be noted: Saermark et al.; Bryant et al.; cited from earlier work.
Data set [3] relates to Mewo cells. The experiment in a line: Cytotoxicity in Mewo cells (monolayer) in the VZV plaque assay. Also on record: Toxicity in Mewo Cells: key to the marks not given beside the values. On the procedure:
as §1, §2, §4

Data set [4] is described as follows: in vitro. To be noted: human, mewo cells. Also on record: Toxicity in Mewo Cells: key to the marks not given beside the values. The method, then: as §1, §2, §4
For data set [5], the system named is VZV viral antigen synthesis. The data set can be described thus: Synthesis of VZV viral antigen assayed by immunoblotting in infected MRC5 cells. It is filed as cell-based, Varicella zoster virus (VZV). The method, then:
In order to characterise the nature of the antiviral effect, the effect of 2-hydroxymyristic acid on the synthesis of viral antigen was assayed by immunoblotting.

The subject of data set [6] is MRC5 monolayer. The data set can be described thus: Total protein synthesis by incorporation of 35S methionine in infected MRC5 cells (cytotoxicity). It is filed as cell-based. On the procedure: (§5) Cytotoxicity was assessed by the incorporation of radiolabelled precursors to assay protein synthesis and myristoylation in the infected cell.
In data set [7] the test system is myristoylation. The experiment in a line: Myristoylation in the infected cell by incorporation of radiolabelled precursors. The data set is classed as cell-based. Particulars: 0.1 to 10×IC50. On the procedure: as §5
In data set [8] the test system is HIV. The data set can be described thus: HIV antigen assay. It is filed as cell-based. Particulars: for IC50: Human immunodeficiency virus 1, Table 2. On the procedure:
as §3
(§6) The HIV assays were performed at three of the MRC approved laboratories (Mill Hill, Cambridge and St. Bartholomew's Hospital).
(§7) Stocks of 2-HM were prepared from crystalline solid by dissolving in ethanol or in dimethyl sulphoxide (DMSO) to a concentration of 20 mM to 100 mM, and were stored at -20° C. prior to addition to culture media. Concentrations of 2-HM greater than 80 to 100 μM are imprecise, since 2-HM crystallises from aqueous solutions at such levels.

Data set [9] relates to HIV. The experiment in a line: HIV virus titration (back titration, syncytium formation in C8166 cells). The data set is classed as cell-based. To be noted: Human immunodeficiency virus 1, C8166; Table 2; Ethanol; Mill Hill. On the procedure:
as §3, §6, §7

The nature of data set [10]: Cytotoxicity to C8166 cells in HIV assays. The data set is classed as cell-based. Particulars: human, c8166 cells, Table 2. The method, then:
as §3, §6, §7

The test system of data set [11] is C8166 cells. The experiment in a line: Cytotoxicity to C8166 cells in HIV assays. It is filed as cell-based. Particulars: St. Bartholomew's and Mill Hill; only above levels at which 2-HM would crystallise from aqueous solution. On the procedure:
as §3, §6, §7

The nature of data set [12]: Crystallisation from aqueous solution / medium. It is filed as physicochemical.
The mark [13] stands for this setting: Human alphaherpesvirus 3, MeWo, 192 h, Table 1, Example 3, solubilized in ethanol, 0, 2, 20 or 200 μM, eight days post infection, Mewo cells, read-out: IC50 Against VZV.
[14] abbreviates: Human alphaherpesvirus 3, MeWo, 192 h, read-out: IC50 Against VZV (μM).
Setting [15] is: Table 1, Example 3, solubilized in ethanol, 0, 2, 20 or 200 μM, eight days post infection, Mewo cells.
[16] abbreviates: Table 1, Example 3, solubilized in ethanol, 0, 2, 20 or 200 μM, eight days post infection, Mewo cells, read-out: IC50 Against VZV.

Molecules are shown by their SMILES. In brackets after ≈: the same amount, converted by molar mass. Entries after “also recorded” stand apart in the source; their conditions may differ. Read-outs that look alike come from different tables or passages of the source.

Regarding `CCCCNCCCCCCCCC(=O)O` [9-(butylamino)nonanoic acid, reference compound], the IC50 in [1] (setting [13]) came to 164 µM.
For the compound `COCCCCCCCCCCCC(=O)O` [13-oxamyristic acid], in data set [2], the “Inhibition of HIV release from infected cells (in words)” value is recorded as “effective”.
In the case of `CCCCCCCCCCCCCCC(Br)C(=O)O` (stereo not drawn) [2-bromopalmitic acid], the IC50 in [1] (setting [14]) is 0.89 µM. For the same compound, in data set [3] (Example 3, at 200 μM), the “Toxic at 200 μM (in words)” value is recorded as “toxic at 200 μM”. In [3] (Table 1, Example 3, 0, 2, 20 or 200 μM, eight days post infection), the “Toxicity in Mewo Cells” value was “+++”.
Regarding `CCCCCCCCCCCCCC(=O)NCC(OCC)OCC` [N-myristoylglycinaldiethylacetal (GoA), N-myristoylglycinaldiethylacetal, reference compound], the “Inhibition of VZV (in words)” value in [1] was “did not cause 50% inhibition of virus at any concentration tested”. For the same compound, the “IC50 Against VZV (μM)” value in data set [1] (setting [15]) was “unobtainable”.
With `CCCCCCCCCCCCCC(=O)NC` [myristoylmethylamide, reference compound], the IC50 in data set [1] (setting [13]) amounted to 56.6 µM.
For the compound `CCSCCCCCCCCCCC(=O)O` [11-(ethylthio)undecanoic acid, reference compound], in data set [1] (setting [15]), the “IC50 Against VZV (μM)” value is reported as “unobtainable”.
For the compound `CCCCCCCCCCCCC(O)C(=O)O` (single isomer, unassigned) [2-hydroxytetradecanoic acid (-)], the IC50 in data set [1] (setting [16]) was 11.5 µM. The “Cytotoxicity in the assay (in words)” value in [3] is recorded as “failed to be cytotoxic”.
Turning to `CCCCCCCCCCCCCCC(O)C(=O)O` (stereo not drawn) [2-hydroxypalmitic acid], in [1] (setting [13]), the IC50 came out at 14.2 µM.
Consider `CCCCCCCCCCCCC(O)C(=O)O` (racemic) [2-hydroxymyristic acid], for which the “Inhibition of VZV (in words)” value in data set [1] is “showed inhibition at 20 and 200 μM”. Moreover, the IC50 in data set [1] (Human alphaherpesvirus 3, MeWo, 8 μM lower end to 33 μM upper end, read-out: Range of IC50 against VZV over Examples) is 8 to 33 µM; in data set [1] (setting [13]), 21.5 µM; in data set [1] (Human alphaherpesvirus 3, MeWo, Table 2, DMSO, St. Bartholomew's, read-out: IC50, VZV plaque reduction) it was over 200 µM; in data set [1] (Human alphaherpesvirus 3, MeWo, Table 2, Ethanol, St. Bartholomew's, read-out: IC50, VZV plaque reduction), 33.1 µM; in data set [1] (Human alphaherpesvirus 3, MeWo, read-out: 50% inhibitory concentration (IC50), VZV plaque reduction) it was 8 µM; in data set [8] (DMSO, St. Bartholomew's), 220 µM. The IC50 worked out at 2 µM in [8] (Ethanol, Mill Hill); 31.4 µM in data set [8] (Ethanol, St. Bartholomew's); 3.9 µM in [9]. Also, the “Anti-viral effect against VZV (in words)” value in data set [1] (solubilised in DMSO) is recorded as “no significant anti-viral effect”. Moreover, the “Inhibition of VZV replication (in words)” value in data set [1] (solubilised in ethanol, St. Bartholomew's Hospital) is given as “inhibits the replication”. Moreover, the CC50 is over 200 µM in data set [4]; over 200 µM in [3] (human, mewo cells); over 400 µM in [10] (DMSO, St. Bartholomew's, read-out: TC50, HIV antigen assay); 192 µM in [10] (Ethanol, Mill Hill, antigen assay, read-out: TC50, HIV antigen assay); 192 µM in [10] (Ethanol, Mill Hill, virus titration, read-out: TC50, HIV virus titration); 168 µM in data set [10] (Ethanol, St. Bartholomew's, read-out: TC50, HIV antigen assay). In addition, in data set [3], the “Cytotoxicity in the assay (in words)” value is given as “failed to be cytotoxic”. For the same compound, the “Effect on syncytium formation” value in [5] (MRC5 monolayers, suggested by results) is recorded as “inhibit syncytium formation”. In data set [5] (inoculum one infected to four uninfected cells, three days post-infection, 80 μM (10×IC50)), the “Reduction in viral antigen synthesis” value was “no reduction in antigen synthesis was apparent”. Further, the “Inhibition of viral antigen synthesis at reduced inoculum” value in [5] (reduced initial inoculum, harvest time increased, inversely proportional to inoculum) is listed as “inhibition was apparent”. For the same compound, in data set [6] (1:4 inoculum, 0.1 to 10×IC50), the “Total protein synthesis (35S methionine incorporation)” value is “unaffected at any concentration tested”. The “Cellular toxicity (in words)” value in data set [6] (up to ten times greater than the IC50) is listed as “not toxic to cells; also recorded: without producing significant cellular toxicity”. Further, the Inhibition of myristoylation result in [7] is “non-specific inhibition of myristoylation”. The “Anti-viral effect against HIV on re-test (in words)” value in data set [8] (ethanol as the solvent, St. Bartholomew's Hospital) is listed as “a clear anti-viral effect was apparent”. In data set [8] (solubilised in DMSO, St. Bartholomew's Hospital), the “Anti-viral effect against HIV (in words)” value was “lack of any significant anti-viral effect”. Further, the “Inhibition of HIV replication (in words)” value in [8] (solubilised in ethanol, Mill Hill) is “inhibits the replication”. Besides, the “Toxicity to C8166 cells (in words)” value in [11] is on record as “toxicity of 2-HM to C8166 cells was detected”. Moreover, in data set [12] (aqueous solution, aqueous solutions, read-out: Concentration above which 2-HM crystallises from aqueous solutions), the solubility lay in the range of 80 to 100 µM (≈ 19.5 to 24.4 µg/mL). Moreover, the Crystalline deposits entry in data set [12] (at the highest concentration, VZV plaque assay) is listed as “crystalline deposits were observed”.
For the compound `CCNCCCCCCCCCCC(=O)O` [11-(ethylamino)undecanoic acid, reference compound], in [1] (setting [15]), the “IC50 Against VZV (μM)” value is “unobtainable”.
With `CCCCCCCCCC(OCC)C(=O)O` (stereo not drawn) [2-(ethyloxy)undecanoic acid, reference compound], in data set [1] (setting [13]), the IC50 was determined as 14.4 µM.
For `COCCCCCCCCCCCC(=O)O` [12-(methyloxy)dodecanoic acid, reference compound], the IC50 in data set [1] (setting [14]) stood at 17.3 µM.
For `CCCCCCCCCCCCC(O)C(=O)O` (single isomer, unassigned) [2-hydroxytetradecanoic acid (+)], in [1] (setting [16]), the IC50 was found to be 48.7 µM. Further, in [3], the “Cytotoxicity in the assay (in words)” value is on record as “failed to be cytotoxic”.
On to `O=C(O)C1CO1` (stereo not drawn) [glycidic acid, reference compound], for which the IC50 in data set [1] (setting [13]) turned out to be 4.5 µM.
Still for that read-out and setting: for `CCCCCCCCCCCCC(Br)C(=O)O` (stereo not drawn) [2-bromotetradecanoic acid, reference compound] the value was 14.8 µM.
In the case of `CCCCCCCCCCCCC(N=[N+]=[N-])C(=O)O` (stereo not drawn) [2-azidotetradecanoic acid, reference compound], in [1] (setting [15]), the “IC50 Against VZV (μM)” value is “unobtainable”.
